In ChEMBL document CHEMBL5543172, “Novel Isoalantolactone-Based Derivatives as Potent NLRP3 Inflammasome Inhibitors: Design, Synthesis, and Biological Characterization” (J Med Chem, 2024):
The source made the active and inactive calls. The calls are words filed in the database; no cut-off is given here.

Assays:
THP-1 [1] = test: Inhibition of pyroptosis in LPS/nigericin induced PMA-differentiated human THP-1 cells assessed as reduction in red fluorescence production preincubated with LPS for 3 hrs followed by compound addition for 40 mins and further stimulated with nigericin for 40 mins by PI staining based inverted microscopy based analysis; type: functional, cell-based; conditions: dose 0.25-1 µM, time 80.0 min
THP-1 [2] = test: Inhibition of NLRP3-NEK7 interaction in LPS/nigericin stimulated human THP-1 cells at 1 uM preincubated with LPS for 3 hrs followed by compound addition for 40 mins and further stimulated with nigericin for 40 mins by immunoprecipitation analysis; type: cell-based; conditions: time 80.0 min
[3] = target: Substance-P receptor (Homo sapiens) (UniProt P25103); test: Inhibition of NK1 receptor (unknown origin) at 1 uM relative to control
Mus musculus [4] = test: Anti-colitis activity against DSS-induced ulcerative colitis C57BL/6 mouse model assessed as reduction in IL-1 beta level at 15 to 30 mg/kg, ip by ELISA method; type: functional, organism-based; conditions: dose 15-30 mg/kg
[5] = Drug distribution in C57BL/6 mouse plasma at 30 mg/kg, ip measured after 2 hrs by LC-MS/MS analysis; type: ADME, organism-based
[6] = Drug distribution in C57BL/6 mouse colon at 30 mg/kg, ip measured after 8 hrs by LC-MS/MS analysis; type: ADME, organism-based; conditions: read-out: Drug uptake
THP-1 [7] = test: Binding affinity to NLRP3deltaLRR mutant in PMA- differentiated human THP-1 cells assessed as increase in thermal stability of protein at 1 uM pretreated with LPS for 3 hrs followed by compound addition at 45 to 63 degC for 2 mins by CETSA analysis; type: cell-based
[8] = target: Mu-type opioid receptor (Homo sapiens) (UniProt P35372); test: Activation of mu opioid receptor (unknown origin) at 1 uM relative to control
Chain of Mu-type opioid receptor (Homo sapiens) (P35372 whole entry): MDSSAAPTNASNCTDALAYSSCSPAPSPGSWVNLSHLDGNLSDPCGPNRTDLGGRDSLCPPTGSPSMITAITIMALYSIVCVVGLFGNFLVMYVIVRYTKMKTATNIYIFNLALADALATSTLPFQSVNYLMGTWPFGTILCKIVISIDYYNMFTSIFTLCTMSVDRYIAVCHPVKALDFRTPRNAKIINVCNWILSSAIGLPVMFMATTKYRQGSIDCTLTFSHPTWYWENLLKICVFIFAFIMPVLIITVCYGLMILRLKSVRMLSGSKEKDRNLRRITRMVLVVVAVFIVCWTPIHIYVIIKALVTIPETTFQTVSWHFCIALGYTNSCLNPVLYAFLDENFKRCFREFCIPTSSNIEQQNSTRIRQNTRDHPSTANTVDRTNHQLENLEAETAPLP

Cytochrome P450 2C9 = Cytochrome P450 2C9 (Homo sapiens, UniProt P11712); test: Inhibition of CYP2C9 in human liver microsomes using tolbutamide as substrate preincubated for 5 mins followed by NADPH addition and measured after 30 to 60 mins by LC-MS/MS analysis; type: ADME, Microsome
Chain of Cytochrome P450 2C9 (P11712 whole entry): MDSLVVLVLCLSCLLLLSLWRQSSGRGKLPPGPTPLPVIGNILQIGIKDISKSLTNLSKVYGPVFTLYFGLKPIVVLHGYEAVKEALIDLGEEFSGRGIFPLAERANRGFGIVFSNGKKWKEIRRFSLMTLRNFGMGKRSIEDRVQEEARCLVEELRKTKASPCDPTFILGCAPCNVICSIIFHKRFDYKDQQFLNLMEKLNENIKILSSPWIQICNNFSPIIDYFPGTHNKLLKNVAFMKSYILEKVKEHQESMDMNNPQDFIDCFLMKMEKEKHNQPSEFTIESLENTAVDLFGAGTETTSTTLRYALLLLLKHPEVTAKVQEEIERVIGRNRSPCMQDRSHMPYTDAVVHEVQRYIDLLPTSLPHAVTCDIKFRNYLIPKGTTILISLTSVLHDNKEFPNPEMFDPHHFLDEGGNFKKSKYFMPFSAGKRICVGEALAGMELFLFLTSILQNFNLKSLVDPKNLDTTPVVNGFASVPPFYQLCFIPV

[9] = Cytotoxicity against human PBMC cells at 0.08 to 0.63 uM measured after 24 hrs by CCK-8 method; type: toxicity, cell-based; conditions: dose 0.08-0.63 µM
[10] = target: P2X purinoceptor 3 (Homo sapiens) (UniProt P56373); test: Inhibition of P2X3 (unknown origin) at 1 uM relative to control
Chain of P2X purinoceptor 3 (Homo sapiens) (P56373 whole entry, the tested form may be a part): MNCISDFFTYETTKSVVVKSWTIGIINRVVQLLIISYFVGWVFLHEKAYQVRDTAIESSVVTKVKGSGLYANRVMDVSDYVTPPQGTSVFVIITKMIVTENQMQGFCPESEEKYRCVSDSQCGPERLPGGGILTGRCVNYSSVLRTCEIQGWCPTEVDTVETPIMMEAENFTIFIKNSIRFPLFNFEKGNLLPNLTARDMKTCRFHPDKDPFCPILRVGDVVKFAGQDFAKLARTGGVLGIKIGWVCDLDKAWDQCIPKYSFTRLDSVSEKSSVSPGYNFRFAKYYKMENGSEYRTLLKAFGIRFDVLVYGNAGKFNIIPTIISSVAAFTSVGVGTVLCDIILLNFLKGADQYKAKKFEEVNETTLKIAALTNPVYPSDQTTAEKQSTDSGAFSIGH

[11] = target: NACHT, LRR and PYD domains-containing protein 3 (Mus musculus) (UniProt Q8R4B8); test: Inhibition of NLRP3 inflammasome activation in LPS/Nigericin induced mouse BMDM cells assessed as effect on pro-casapase-1 expression at 0.25 to 1 uM preincubated with LPS for 3 hrs followed by compound addition for 40 mins and further stimulated with nigericin for 40 mins by Western blot analysis; type: cell-based; conditions: dose 0.25-1 µM, time 80.0 min
Chain of NACHT, LRR and PYD domains-containing protein 3 (Mus musculus) (Q8R4B8 whole entry, the tested form may be a part): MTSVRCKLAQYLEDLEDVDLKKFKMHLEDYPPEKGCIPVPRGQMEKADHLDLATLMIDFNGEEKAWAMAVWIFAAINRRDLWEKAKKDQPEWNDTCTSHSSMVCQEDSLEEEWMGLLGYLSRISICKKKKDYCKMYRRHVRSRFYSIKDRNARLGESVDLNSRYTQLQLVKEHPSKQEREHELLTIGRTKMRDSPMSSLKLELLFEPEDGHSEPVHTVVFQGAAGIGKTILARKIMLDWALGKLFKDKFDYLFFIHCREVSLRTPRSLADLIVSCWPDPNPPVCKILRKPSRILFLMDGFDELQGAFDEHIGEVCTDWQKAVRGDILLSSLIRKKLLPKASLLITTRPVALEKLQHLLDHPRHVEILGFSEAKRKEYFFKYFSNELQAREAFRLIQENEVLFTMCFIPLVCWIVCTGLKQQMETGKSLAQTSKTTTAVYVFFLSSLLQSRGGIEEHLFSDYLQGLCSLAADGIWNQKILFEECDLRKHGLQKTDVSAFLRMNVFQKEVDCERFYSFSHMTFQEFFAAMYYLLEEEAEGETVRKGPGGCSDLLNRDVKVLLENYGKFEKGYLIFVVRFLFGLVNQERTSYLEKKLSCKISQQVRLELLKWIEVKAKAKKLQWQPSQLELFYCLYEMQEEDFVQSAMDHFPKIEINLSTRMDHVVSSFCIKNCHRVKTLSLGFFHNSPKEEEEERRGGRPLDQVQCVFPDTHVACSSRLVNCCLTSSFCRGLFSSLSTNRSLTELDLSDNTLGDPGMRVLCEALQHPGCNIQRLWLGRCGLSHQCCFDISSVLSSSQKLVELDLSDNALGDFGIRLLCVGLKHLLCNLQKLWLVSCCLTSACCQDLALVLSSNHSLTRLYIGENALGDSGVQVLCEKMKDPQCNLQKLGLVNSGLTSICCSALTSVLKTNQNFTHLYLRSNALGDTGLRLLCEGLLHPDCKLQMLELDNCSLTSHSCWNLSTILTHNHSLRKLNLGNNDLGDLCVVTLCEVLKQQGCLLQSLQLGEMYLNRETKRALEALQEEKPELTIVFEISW

Cytochrome P450 2D6 = Cytochrome P450 2D6 (Homo sapiens, UniProt P10635); test: Inhibition of CYP2D6 in human liver microsomes using dextromethorphan as substrate preincubated for 5 mins followed by NADPH addition and measured after 30 to 60 mins by LC-MS/MS analysis; type: ADME, Microsome
Chain of Cytochrome P450 2D6 (P10635 whole entry): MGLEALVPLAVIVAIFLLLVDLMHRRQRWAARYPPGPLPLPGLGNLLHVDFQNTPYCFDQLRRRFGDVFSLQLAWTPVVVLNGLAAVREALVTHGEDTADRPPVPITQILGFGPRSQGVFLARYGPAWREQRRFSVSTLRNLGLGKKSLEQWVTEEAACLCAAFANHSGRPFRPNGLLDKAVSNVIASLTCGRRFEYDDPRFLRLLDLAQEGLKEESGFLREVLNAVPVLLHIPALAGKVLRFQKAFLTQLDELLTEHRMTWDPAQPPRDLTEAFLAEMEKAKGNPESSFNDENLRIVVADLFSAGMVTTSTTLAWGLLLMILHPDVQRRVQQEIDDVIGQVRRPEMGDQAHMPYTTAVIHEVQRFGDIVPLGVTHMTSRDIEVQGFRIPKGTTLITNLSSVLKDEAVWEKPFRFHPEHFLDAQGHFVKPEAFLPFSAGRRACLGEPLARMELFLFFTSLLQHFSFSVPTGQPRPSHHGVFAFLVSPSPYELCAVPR

Cytochrome P450 2E1 = Cytochrome P450 2E1 (Homo sapiens, UniProt P05181); test: Inhibition of CYP2E1 in human liver microsomes using chlorzoxazone as substrate preincubated for 5 mins followed by NADPH addition and measured after 30 to 60 mins by LC-MS/MS analysis; type: ADME, Microsome
Chain of Cytochrome P450 2E1 (P05181 whole entry): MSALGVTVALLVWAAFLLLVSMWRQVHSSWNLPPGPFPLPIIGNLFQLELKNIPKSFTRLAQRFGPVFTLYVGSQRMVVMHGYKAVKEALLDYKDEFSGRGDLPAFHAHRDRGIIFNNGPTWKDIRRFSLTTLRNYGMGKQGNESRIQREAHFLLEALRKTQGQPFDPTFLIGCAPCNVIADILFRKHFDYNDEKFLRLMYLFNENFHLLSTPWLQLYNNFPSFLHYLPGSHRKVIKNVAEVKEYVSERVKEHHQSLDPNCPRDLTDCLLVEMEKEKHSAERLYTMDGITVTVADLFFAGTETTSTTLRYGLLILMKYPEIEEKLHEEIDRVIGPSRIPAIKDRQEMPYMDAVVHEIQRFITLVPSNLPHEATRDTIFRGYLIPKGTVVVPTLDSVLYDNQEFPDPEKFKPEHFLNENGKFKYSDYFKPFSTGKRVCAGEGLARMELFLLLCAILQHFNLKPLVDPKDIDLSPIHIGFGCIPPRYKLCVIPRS

[12] = target: Mu-type opioid receptor (Homo sapiens) (UniProt P35372); test: Inhibition of mu opioid receptor (unknown origin) at 1 uM relative to control
Homo sapiens = species on record: Homo sapiens; test: Activation of GlyRalpha1beta (unknown origin) at 1 uM relative to control
[13] = target: NACHT, LRR and PYD domains-containing protein 3 (Mus musculus) (UniProt Q8R4B8); test: Inhibition of NLRP3 inflammasome activation in LPS/Nigericin induced mouse BMDM cells assessed as suppression of caspase-1 secretion preincubated with LPS for 3 hrs followed by compound addition for 40 mins and further stimulated with nigericin for 40 mins by Western blot analysis; type: cell-based; conditions: dose 0.25-1 µM, time 80.0 min
[14] = Drug distribution in C57BL/6 mouse colon at 30 mg/kg, ip measured after 2 hrs by LC-MS/MS analysis; type: ADME, organism-based; conditions: read-out: Drug uptake
Mus musculus [15] = test: Anti-colitis activity against DSS-induced ulcerative colitis C57BL/6 mouse model assessed as suppression of caspase-1 activation at 15 to 30 mg/kg, ip by Western blot analysis; type: functional, organism-based; conditions: dose 15-30 mg/kg
[16] = target: Sodium-dependent noradrenaline transporter (Homo sapiens) (UniProt P23975); test: Inhibition of NET (unknown origin) at 1 uM relative to control
[17] = target: Prostaglandin E2 receptor EP2 subtype (Homo sapiens) (UniProt P43116); test: Activation of EP2 receptor (unknown origin) at 1 uM relative to control
Chain of Prostaglandin E2 receptor EP2 subtype (Homo sapiens) (P43116 whole entry): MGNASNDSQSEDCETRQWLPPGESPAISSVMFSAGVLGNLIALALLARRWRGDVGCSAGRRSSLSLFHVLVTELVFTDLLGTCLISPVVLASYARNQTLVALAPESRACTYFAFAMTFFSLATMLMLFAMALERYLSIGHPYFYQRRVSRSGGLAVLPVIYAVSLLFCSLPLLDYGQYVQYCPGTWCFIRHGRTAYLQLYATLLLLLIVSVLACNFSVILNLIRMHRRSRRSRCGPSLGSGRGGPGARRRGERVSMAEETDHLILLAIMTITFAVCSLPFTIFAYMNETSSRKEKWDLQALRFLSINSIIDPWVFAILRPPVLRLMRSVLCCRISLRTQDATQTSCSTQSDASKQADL

[18] = Drug distribution in C57BL/6 mouse plasma at 30 mg/kg, ip measured after 24 hrs by LC-MS/MS analysis; type: ADME, organism-based
[19] = MRT (0 to t) in male C57BL/6 mouse at 30 mg/kg, ip measured upto 1440 mins by LC-MS/MS analysis; type: ADME, organism-based; conditions: in vivo
Mus musculus [20] = test: Anti-colitis activity against DSS-induced ulcerative colitis C57BL/6 mouse model assessed as alleviation of goblet cell depletion at 15 to 30 mg/kg, ip administered daily and measured after 10 days by H and E staining based analysis; type: functional, organism-based; conditions: dose 15-30 mg/kg, time 10.0 day
[21] = target: Muscarinic acetylcholine receptor M3 (Homo sapiens) (UniProt P20309); test: Inhibition of muscarinic M3 receptor (unknown origin) at 1 uM relative to control
BMDM = test: Inhibition of pyroptosis in LPS/nigericin induced […] cells assessed as reduction in […] at […] preincubated with LPS for 3 hrs followed by compound addition for 40 mins and further stimulated with nigericin for 40 mins by LDH assay; type: functional, cell-based; conditions: dose lower 0.25 µM, time 80.0 min
[22] = target: Histamine H1 receptor (Homo sapiens) (UniProt P35367); test: Inhibition of Histamine H1 receptor (unknown origin) at 1 uM relative to control
Chain of Histamine H1 receptor (Homo sapiens) (P35367 whole entry): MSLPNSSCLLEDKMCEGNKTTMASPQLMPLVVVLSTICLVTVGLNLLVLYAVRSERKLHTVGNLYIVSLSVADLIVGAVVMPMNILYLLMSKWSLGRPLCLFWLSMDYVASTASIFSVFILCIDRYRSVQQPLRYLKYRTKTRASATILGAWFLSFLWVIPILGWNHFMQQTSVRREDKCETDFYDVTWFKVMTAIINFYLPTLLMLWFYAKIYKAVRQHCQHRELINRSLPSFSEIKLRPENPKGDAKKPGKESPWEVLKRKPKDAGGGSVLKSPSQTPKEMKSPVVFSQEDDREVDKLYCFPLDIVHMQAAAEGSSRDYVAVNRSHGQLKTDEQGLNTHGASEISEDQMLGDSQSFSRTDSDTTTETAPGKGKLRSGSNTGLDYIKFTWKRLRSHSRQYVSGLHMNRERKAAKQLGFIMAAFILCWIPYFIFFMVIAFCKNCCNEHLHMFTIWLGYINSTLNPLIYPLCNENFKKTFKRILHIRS

Mus musculus [23] = test: Anti-colitis activity against DSS-induced ulcerative colitis C57BL/6 mouse model assessed as alleviation of reduced crypt count at 15 to 30 mg/kg, ip administered daily and measured after 10 days by H and E staining based analysis; type: functional, organism-based; conditions: dose 15-30 mg/kg, time 10.0 day
[24] = target: 5-hydroxytryptamine receptor 7 (Homo sapiens) (UniProt P34969); test: Activation of 5-HT7 receptor (unknown origin) at 1 uM relative to control
Chain of 5-hydroxytryptamine receptor 7 (Homo sapiens) (P34969 whole entry): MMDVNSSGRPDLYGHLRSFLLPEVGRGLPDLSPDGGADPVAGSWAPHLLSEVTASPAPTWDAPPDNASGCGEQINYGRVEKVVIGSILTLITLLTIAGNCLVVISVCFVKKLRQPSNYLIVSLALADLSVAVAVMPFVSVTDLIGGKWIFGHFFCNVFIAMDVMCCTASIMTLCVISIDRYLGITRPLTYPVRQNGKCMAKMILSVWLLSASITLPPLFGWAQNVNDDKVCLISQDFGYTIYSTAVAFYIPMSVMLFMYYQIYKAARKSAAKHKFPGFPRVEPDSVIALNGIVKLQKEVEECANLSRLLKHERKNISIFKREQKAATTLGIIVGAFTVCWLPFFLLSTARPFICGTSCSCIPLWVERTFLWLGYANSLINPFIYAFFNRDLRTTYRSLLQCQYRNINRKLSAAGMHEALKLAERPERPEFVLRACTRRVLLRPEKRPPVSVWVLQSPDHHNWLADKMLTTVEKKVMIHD

inhibition [3]: < 50% | concentration at 2 h [5]: 1.97 ng/mL | concentration at 8 h [6]: 80.2 ng/g | Activity [8]: < 50% | IC50 (Cytochrome P450 2C9): 5.8 µM | inhibition [10]: < 50% | Activity [11]: inactive | IC50 (Cytochrome P450 2D6): > 100 µM | IC50 (Cytochrome P450 2E1): > 100 µM | inhibition [12]: < 50% | Activity (Homo sapiens): < 50% | inhibition [13]: Dose-Dependent Effect | concentration at 2 h [14]: 4610 ng/g | inhibition [16]: < 50% | Activity [17]: < 50% | concentration at 24 h [18]: 1.65 ng/mL | MRT last at 24 h [19]: 11 h | inhibition [21]: < 50% | inhibition [22]: < 50% | Activity [24]: < 50%
SMILES: C=C1C(=O)O[C@@H]2C[C@@]3(C)CC[C@@H](OC(=O)c4cnc(Cl)cc4Cl)C(=C)[C@@H]3C[C@H]12
inhibition (THP-1 [1]): Active | inhibition (THP-1 [2]): Active | Activity (Mus musculus [4]): Active | Activity (THP-1 [7]): Active | Activity [9]: Non-Toxic | Activity (Mus musculus [15]): Active | Activity (Mus musculus [20]): Active | inhibition (BMDM): Active | Activity (Mus musculus [23]): Active
